From patent US11884734B2, “Anti-MET antibodies and methods of use thereof” (Celldex Therapeutics, Inc., priority 2015, dated 2024)
One block for each compound: values may come before it.

Columns and labels:
[1] = target: T1, MET (Homo sapiens, UniProt P08581); experiment: HGF-induced MET degradation in A549 cells; type: cell-based; parameters: cell lines expressing wild-type MET such as A549 and U87MG cells; endogenous in cells; host or cells: A549; settings: A549 cells (wild-type MET)
From the text: (§1) MET exon 14 mutations have been reported in many cancers (The Cancer Genome Atlas Research Network, 2014, Nature, 511(7511):543-550; Frampton et al., 2015, Cancer Discov. 5(8):850-859). MET exon 14 mutations confer reduced HGF-induced receptor degradation. Deletion of exon 14 (Leu964-Asp1010) removes the Tyr1003 site necessary for Cbl binding leading to a substantial decrease HGF-induced receptor degradation as previously reported (Kong-Beltram et al., 2006, Cancer Res. 66(1):283-289). […] In a non-small-cell lung cancer cell line H596, a functional MET protein is expressed without the 47 amino acids encoded by exon 14 (Kong-Beltram et al., 2006, Cancer Res. 66(1):283-289).

[2] = target: T1, MET; experiment: HGF-induced MET degradation in U87MG cells; type: cell-based; settings: U87MG cells (wild-type MET)
From the text: as §1

[3] = target: T2, MET (Homo sapiens, UniProt P08581, DEL964-1010); experiment: MET degradation in H596 cells (exon 14 deleted MET); type: cell-based; settings: 1 nM HGF, 24 hrs
T2 construct: In a non-small-cell lung cancer cell line H596, a functional MET protein is expressed without the 47 amino acids encoded by exon 14; endogenous in cells; host or cells: H596 (NSCLC / adenosquamous carcinoma)
From the text: as §1

[4] = target: T1, MET; experiment: MET ubiquitination in A549 cells (immunoprecipitation/immunoblot); type: cell-based; parameters: cell lines expressing wild-type MET such as A549 and U87MG cells; endogenous in cells; host or cells: A549; settings: 1 nM, 15 min, FIG. 12B
From the text: Whether the anti-MET antibodies promote MET ubiquitination and degradation was investigated next. […] Cell lysates were precipitated with anti-ubiquitin antibody conjugated agarose (Santa Cruz) followed by immunoblotting with anti-MET antibody (Cell Signaling Technology). […] Thus, these antibodies promote receptor degradation utilizing the ubiquitination mechanism instead of protease-mediated shedding. This is in contrast with membrane protease-mediated receptor shedding observed previously with antibodies such as DN30 (Schleter, 2010, J. Biol. Chem. 285(34):26335-26340).

[5] = test system: MET, AKT and MAPK phosphorylation; experiment: Akt and MAPK phosphorylation analysis by western blot in A549 cells; type: cell-based, human; settings: HGF treatment
Procedure: Western blots were generated from total protein separated on a 10% SDS-PAGE gel. Resolved protein was transferred to nitrocellulose (Bio-Rad), blocked for 1 h with 5% skim milk at 25° C., and then incubated with the indicated antibody overnight at 4° C. The anti-pAkt antibody, anti-pMAPK antibody (Cell Signaling cat. No. 9271 and Cell Signaling cat. No. 4370, respectively), and anti-1234/1235 MET XP antibody (Cell Signaling cat. No. 3077) were used at a concentration of 1 μg/mL in 5% skim milk. Secondary mouse and rabbit antibodies (GE Healthcare) were used at a 1:5000 dilution for 1 h at 25° C. SuperSignal® West Picto Chemiluminescent HRP Substrate (Thermo Scientific cat. No. 34078) was used as directed.

[6] = test system: U87MG tumor cells; experiment: U87MG orthotopic mouse model (bioluminescence); type: in vivo; settings: 25 mg/kg; compared with control chimeric IgG1 anti-KLH antibody
Procedure: The ability of the anti-MET antibodies to inhibit tumor growth in vivo is assessed as described in Sections 6.2.1.3, 6.2.1.4, and 6.2.1.5. […] Treatment was performed biweekly, every three to four days, for seven weeks.

[7] = target: T1, MET; experiment: MET shedding ELISA (sMET-ECD release) in A549 cells; type: cell-based; parameters: cell lines expressing wild-type MET such as A549 cells; endogenous in cells; host or cells: A549; settings: 24 hrs, 1 nM of antibody, FIG. 12A

receptor degradation [1]: approximately 80%
receptor degradation [2]: approximately 80%
receptor degradation [3]: 30%
MET receptor ubiquitination [4]: induced potent receptor ubiquitination
Compound: HGF: MET ligand used to stimulate cells

Compound: C[C@@H](Oc1cc(-c2cnn(C3CCNCC3)c2)cnc1N)c1c(Cl)ccc(F)c1Cl [crizotinib]
MET protein levels, western blot [5]: not observed
activation of MET (phosphorylated MET), western blot [5]: inhibited activation of MET
activation of downstream signaling components Akt and MAPK (phosphorylation), western blot [5]: reduces the activation of downstream signaling components Akt and MAPK
tumor growth (bioluminescence) [6]: resulted in similar tumor growth

Compound: CCCCCCCCCCCCCC(=O)O[C@@H]1[C@@H](C)[C@@]2(O)[C@@H](C=C(CO)C[C@]3(O)C(=O)C(C)=C[C@@H]23)[C@@H]2C(C)(C)[C@]12OC(C)=O [PMA, phorbol 12-myristate 13-acetate]
MET shedding (release of sMET-ECD into culture medium) [7]: induced substantial MET shedding
